Assay results from publication PMC7682835, “A novel G protein-coupled receptor for starfish gonadotropic hormone, relaxin-like gonad-stimulating peptide” (PLoS ONE, 2020).

Columns and labels:
[1] = tested on: starfish; settings: injection of 1-MeAde compared with RGP; cited from earlier work
Description: (§1) Although RGP is the primary mediator of oocyte maturation and ovulation, the effect of RGP is indirect. RGP secreted by radial nerve cords induces ovarian follicle cells to produce 1-methyladenine (1-MeAde) as a maturation-inducing hor ...

[2] = tested on: PpeRGPR; test: Intracellular calcium mobilization (Fluo-8) in Sf9 cells transfected with Gαq16-fused PpeRGPR; type: cell-based, Patiria pectinifera; settings: for Effect on calcium signaling (result in words): Fluo-8, 490/514 nm
Procedure: Functional characterization of PpeRGPR was performed using Sf9 cells and baculovirus-based expression methods, as previously reported. The open reading frame (ORF) of human Gαq16 protein (OriGene, Rockville, MD, USA), which couples with GPCRs and triggers intracellular calcium mobilization upon binding of a specific ligand [33] was subcloned into the XbaI site of the pFastbacI plasmid (Invitrogen, Waltham, MA, USA). PpeRGPR was then cloned into the NotI/XbaI site of the Gαq16-ligated pFastbacI plasmids. Transformation of competent cells with the PpeRGPR-Gαq16-pFastbacI plasmid and the resulting bacmid isolation was performed according to the manufacturer’s instructions for the Bac-to-Bac system (Thermo Fisher Scientific, Waltham, MA, USA).
Sf9 cells (Thermo Fisher Scientific) were grown in Sf900 II (Thermo Fisher Scientific) containing 10% FBS (Sigma-Aldrich) at 28°C. PpeRGPR-Gαq16-recombinant baculoviruses were prepared from Sf9 cells transfected with the above bacmids using Cellfectin II (Thermo Fisher Scientific), titrated, isolated, and transiently transfected into Sf9 cells, as previously described. Sf9 cells were plated at 1.2×10^5 cells/well (on a 96-well plate) or 2.4×10^5 cells (on a glass bottom dish) prior to transfection. Forty-eight hours after transfection, Sf9 cells were loaded for 30 min with 2.5 μM of Fluo-8 AM (AAT Bioquest, Sunnyvale, CA, USA) diluted in loading buffer [HBSS supplemented with 1.25 mM probenecid and 0.04% (wt/vol) pluronic F-127] [32]. Cell membrane expression of PpeRGPR-fused human Gαq16 was confirmed by immunostaining using the anti-Gαq16 antibody (OriGene, TA318890) in comparison with non-transfected Sf9 cells (wild type). Dose-dependent responses to PpeRGP or AamRGP were measured using a FlexStation II-automated apparatus (Molecular Devices, San Jose, CA, USA) at the excitation/emission wavelengths of 490/514 nm. Calcium accumulation data were analyzed using Prism v6 (GraphPad Software, San Diego, CA, USA) to fit to a sigmoidal concentration-response curve, as previously described. The dose-response curve was statistically evaluated by analysis of variance. Significant activation of PpeRPGR by PpeRGP compared with AamRGP at each concentration was also examined by Student t test.
Fig 2 Intracellular calcium mobilization in Sf9 cells. (A, B) Sf9 cells were transfected with Gαq16- fused PpeRGPR-recombinant baculovirus (A) and non-transfected Sf9 cells were used as wild type controls (B). Expression of PpeRGPR in Sf9 cells was examined by immunostaining using an anti-Gαq16 antibody. Immunoreactivity was observed using a fluorescence microscope after incubation with an Alexa Fluor 488-conjugated secondary antibody. […] Scale bars represent 50 μm. […] Each dose-response curve was statistically evaluated by analysis of variance. […]

[3] = tested on: PpeRGPR in P. pectinifera ovarian follicle cells; test: Competitive binding assay, 125I-PpeRGP versus unlabeled RGP, follicle cell homogenates; design: species or system Patiria pectinifera; settings: 2 h at 20°C, four separate assays; for Effect of unlabeled peptide on 125I-PpeRGP binding (result in words): follicle cell homogenates (25 μg of protein), 125I-PpeRGP about 100,000 cpm, final concentration 1.1 pM, total volume 0.5 ml, four animals
Procedure: Follicle cells were homogenized using a Teflon homogenizer in 25 mM Tris-HCl (pH 7.4) containing 10 mM MgCl2. Protein concentrations were measured using a Bio-Rad protein assay kit (Bio-Rad Laboratories, Hercules, CA, USA).
The radioiodination of PpeRGP with Na^125I (carrier free; GE Healthcare, Buckinghamshire, UK) was carried out at room temperature in accordance with the modified lactoperoxidase method, as described previously. The specific activity of radioiodinated PpeRGP (^125I-PpeRGP) was estimated to be 150 μCi/μg.
The specificity of RGP binding was examined using whole homogenates of follicle cells. Preparations were adjusted to yield a protein concentration of 10 mg/ml with the homogenizing medium plus 0.1% (wt/vol) BSA, and stored at -80°C until use. The binding assay was performed using competition experiments between labeled PpeRGP and unlabeled PpeRGP or AamRGP, as described previously. Data were obtained from four separate assays using follicle cells from ovaries of four different animals.
Fig 3 Competitive inhibition curves of ^125I-PpeRGP binding to Patiria pectinifera ovarian follicle cells in the presence of unlabeled PpeRGP or AamRGP. P. pectinifera ovarian follicle cell homogenates (25 μg of protein) were incubated for 2 h at 20°C in assay buffer containing ^125I-PpeRGP (about 100,000 cpm; 2.087 pg/[…]; total volume 0.5 ml, final concentration 1.1 pM) in the presence of serially diluted unlabeled PpeRGP (●) or AamRGP (○). Specific binding was obtained by subtracting nonspecific binding from total binding. Data were obtained from four separate assays using follicle cells from ovaries of four different animals.

[4] = tested on: Patiria pectinifera ovarian follicle cells; test: 1-MeAde production by follicle cells; type: cell-based; settings: follicle cells (ten million in 1 ml ASW), 2 h at 20°C; 1-MeAde released into medium by biological assay; three independent samples
Procedure: (§2) Ten million follicle cells were incubated for 2 h at 20°C in 1 ml of ASW in the presence of PpeRGP or AamRGP, with occasional shaking. The cell suspension was then centrifuged at 1,000 g for 1 min and quickly frozen in liquid nitrogen. Supernatants were analyzed for the amount of 1-MeAde released from follicle cells. The concentration of 1-MeAde was determined by a method previously described, using authentic 1-MeAde as the standard reference. The frozen follicle cells were analyzed for the amount of intracellular cAMP using a BIOTRAK cAMP EIA system (GE Healthcare). The mean was determined from three separate assays using three different animals and standard error of the mean (SEM).
(§3) Fig 4 Effect of RGP on 1-MeAde and cAMP production in Patiria pectinifera ovarian follicle cells. (A) Amino acid alignments of A- and B-chains in P. pectinifera (PpeRGP) and Asterias amurensis (AamRGP). To illustrate the conserved features, the amino acid types are color coded according to their properties, with basic residues in blue (Arg, Lys and His), acidic residues in red (Glu and Asp), hydrophobic residues in green (Ala, Val, Ile, Phe, Trp, Tyr, Pro and Met), hydrophilic in black (Ser, Thr, Asn and Gln) and glycine in light blue. The cysteine residues are highlighted in yellow and disulfide bonds are shown with solid dark red lines. […] Intracellular cAMP content was determined by EIA. […]

[5] = tested on: Patiria pectinifera ovarian follicle cells; test: Intracellular cAMP production in follicle cells; type: cell-based; settings: follicle cells (ten million in 1 ml ASW), 2 h at 20°C; intracellular cAMP by EIA; three independent samples
Procedure: as §2, §3

[6] = tested on: Patiria pectinifera ovarian follicle cells; settings: isolated follicle cells cultured with PpeRGP, cited from earlier work
Description: However, the RGP receptor (RGPR) remains to be identified in s ...

[7] = tested on: P. pectinifera ovaries; settings: approximately; in vitro spawning; read-out: Median effective concentration of in vitro spawning; cited from earlier work
Description: Since cDNA encoding the PpeRGPR was cloned from P. pectinifera follicle cells (Fig 1), PpeRGPR should be expressed on follicle cell surface. […] In contrast to PpeRGP, AamRGP had no effects on binding to P. pectinifera follicle cells (Fig 3), as well as 1-MeAde and cAMP production (Fig 4B) or calcium signals in PpeRGPR-expressing Sf9 cells (Fig 2C). […] Based on 3D structural models, P^A17 of PpeRGP and R^A18 of AamRGP are located near their respective B-cha ...

[8] = tested on: males and females of P. pectinifera; settings: injection of synthetic PpeRGP into males and females with fully-grown testes and ovaries; cited from earlier work
Description: as §1

[9] = tested on: ovarian fragments of P. pectinifera; settings: synthetic PpeRGP, within 30 min of incubation; cited from earlier work
Description: as §1

[10] = tested on: membrane preparation of ovarian follicle cells of P. pectinifera; settings: cited from earlier work
[11] = Sf9 cells with Gαq16-fused PpeRGPR, three to seven independent samples

| Compound | Interval preceding the discharge of gametes after injection (result in words) [1] | Effect on calcium signaling (result in words) [2, 11] | Effect of unlabeled peptide on 125I-PpeRGP binding (result in words) [3] | Effect on 1-MeAde production (result in words) [4] | Effect on cAMP production (result in words) [5] | EC50 ([2]; Sf9 cells transfected with Gαq16-fused PpeRGPR baculovirus, 48 h, Fluo-8 AM 2.5 μM, FlexStation II, 490/514 nm, sigmoidal fit, three to seven independent samples, read-out: EC50, calcium signaling) [nM] | Concentration above which calcium signaling is significantly increased ([2]; Sf9 cells with Gαq16-fused PpeRGPR, Fluo-8) | Kd ([3]; Scatchard plot analysis, follicle cell homogenates, 125I-PpeRGP, read-out: Dissociation constant (Kd)) [nM] | 1-MeAde production in isolated follicle cells (result in words) ([6]; coinciding with cAMP increase) | cAMP production in isolated follicle cells (result in words) [6] | EC50 [7] [nM] | Spawning behavior and spawning after injection (result in words) [8] | Induction of oocyte maturation and ovulation (result in words) [9] | Binding to follicle cell membrane preparation (result in words) [10] |
| --- | --- | --- | --- | --- | --- | --- | --- | --- | --- | --- | --- | --- | --- | --- |
| Cn1cnc2ncnc-2c1N [1-MeAde, 1-methyladenine] | almost equal to those found after injection of RGP |  |  |  |  |  |  |  |  |  |  |  |  |  |
| relaxin-like gonad-stimulating peptide of Asterias amurensis [AamRGP, reference compound] |  | no effect on calcium signaling | no effect on ^125I-PpeRGP binding | no effects | no effects |  |  |  |  |  |  |  |  |  |
| relaxin-like gonad-stimulating peptide of Patiria pectinifera [PpeRGP] |  | significantly increased calcium signaling at concentrations above 1 nM in a dose-dependent manner | decreased in a dose-dependent manner |  |  | 11.1 | above 1 nM | ~0.67 | increase | dose-related increase | 1 to 2 | spawning behavior and subsequent spawning were observed | induced oocyte maturation and ovulation | binds specifically |
